Laboratory results as given in a melting point compilation (Tetko et al.; mined from patent text by program, amines drawn as free bases though some values may be those of a salt).

Row | Compound | melting point [°C]
1 | COc1ccc(N2CCN(c3c(C)c(C)c4c(c3C)C(=O)C(C)(C)O4)CC2)cc1 | 144 to 146
2 | CCN(CC)CCc1ccc(NC(=O)C#Cc2ccc(C(F)(F)F)cc2Cl)cc1 | 145 to 150
3 | NC(=O)NC(=O)c1ccccn1 | 183 to 185
4 | COC(=O)c1nc(-c2ccc(Cl)cc2F)cc(N)c1Br | 148 to 149
5 | Cc1ccc(N2CN(C(=O)c3ccccc3)C3=NN=CC3=C2N)cc1 | 297 to 300
6 | CN1C(=O)[C@H](NC(=O)/C=C/c2ccc(C(F)(F)F)cc2)N=C(c2ccccc2)c2ccccc21 | 133 to 137
7 | CCCCCCCCCCCCCSc1nnc(NC(=O)Nc2c(C(C)C)cccc2C(C)C)[nH]1 | 131 to 135
8 | CC(=O)Nc1ncc(C)cc1C(C)=O | 99 to 100
9 | Cc1nn(C)cc1C(=O)Nc1cccc2c1CCC2(C)C | 147
10 | FC(F)(F)c1ccc(-n2nnnc2Nc2ccc(C(F)(F)F)cc2Cl)cc1 | 116
11 | CCCCCCn1c(-c2ccc(Cl)c(S(=O)(=O)N(C)C)c2)csc1=Nc1ccccc1 | 86
12 | OCC1OC(n2cnc3c(NC4CCc5ccccc54)ncnc32)C(O)C1O (stereo unspecified) | 120 to 122
13 | O=c1c2c(c3cccnc3n1-c1cccc(Cl)c1)OC(CO)C2 (stereo unspecified) | 243 to 245
14 | Nc1n[nH]c2c1cnc1c(NC(=O)c3c(Cl)cccc3Cl)cccc12 | > 300
15 | NS(=O)(=O)c1ccn2c1C(=O)OCC2 | 204 to 206
16 | O=C(OCc1ccccc1)N1CC(O)(C(=O)O)C1 | 134 to 136
17 | COc1c(Cl)ccc(-c2cc(N)c(Cl)c(C(=O)NOC(C)(C)C)n2)c1F | 184 to 187
18 | CCOC(OCC)c1cc(NC(c2ccccc2)(c2ccccc2)c2ccccc2)c(F)c(C2CCC2)n1 | 121 to 122
19 | COc1cc(C(=O)C=Cc2cc(-c3cccs3)ccc2OC)ccc1O | 142 to 144
20 | CCCCC[C@@H](CNC(=O)Nc1c(OC)ccc2c1CCCC2)c1cccc2c1OCO2 | 137 to 138
21 | CC(C)Oc1cccc(-n2c(NC(=O)Nc3ccc(Br)cc3)nc3ccccc3c2=O)c1 | 230 to 233
22 | CC(=O)Oc1cc2c(cc1C(C)(C)C)OC(C)(COc1ccc([N+](=O)[O-])cc1)CC2=O (stereo unspecified) | 82 to 84
23 | Cc1oc(-c2ccc(C(F)(F)F)cc2)nc1CCOc1ccc(CN(O)C(N)=O)cc1F | 144 to 146
24 | COc1ccnc(CC(C)(C)C(=O)O)c1 | 150 to 151

Row | Compound | melting point [°C]
25 | Clc1cccc(-c2nc(Cl)c3ccccc3n2)c1 | 157 to 158
26 | C[C@H](O)CCOc1c(-c2ccc(S(C)(=O)=O)cc2)cnn(-c2ccc(F)c(F)c2)c1=O | 128 to 130
27 | CN(Cc1ccccc1)Cc1c(-c2ccc(NC(=O)C(C)(C)O)cc2)sc2c1c(=O)c(C(=O)c1ccccc1)cn2Cc1c(F)cccc1F | 222 to 223
28 | C(=C\c1cc(/C=C/c2ccc3cc[nH]c3c2)n[nH]1)/c1ccc(-c2ccccc2)cc1 | 273 to 276
29 | COC(=O)COc1ccc(C=O)cc1 | 39 to 41
30 | NS(=O)(=O)c1cc2[nH]c(=O)ccc2s1 | > 300
31 | CCOC(=O)c1cnoc1-c1ccc(Cl)c(Br)c1 | 109 to 110
32 | Cc1cccc(-c2[nH]c(C(C)C)nc2-c2cccc(-c3ccc(NS(C)(=O)=O)cc3F)c2)n1 | 179 to 184
33 | Cn1cnc(=O)c(-c2cccc(C(F)(F)F)c2)c1 | 155 to 156
34 | CS(=O)(=O)c1ccc(Oc2cc(OC3CCOCC3)c3[nH]c(C4=NCC(CC(=O)NCCO)S4)cc3c2)cn1 (stereo unspecified) | 157 to 158
35 | CC(C)(C(=O)c1ccccc1)S(=O)(=O)c1ccccc1 | 70
36 | NC(=O)CC(O)(Cn1cncn1)C(F)(F)C(F)(F)C(F)(F)C(F)(F)F (stereo unspecified) | 145 to 146
37 | Nc1ccc2oc3ccc(OC(F)F)c(C(=O)Nc4c(Cl)cncc4Cl)c3c2c1 | > 270
38 | Cc1cc(C)c2c(=O)n(CC(=O)N3CCNCC3)sc2n1 | 175 to 177
39 | O=C1CCN2CCc3ccccc3C2(c2ccc(F)cc2)C1 (stereo unspecified) | 128 to 130
40 | N#Cc1ccc2c(c1)CC(Br)C2=O (stereo unspecified) | 115 to 118
41 | CC(=O)n1cc(Cl)c(-c2cccc3c2OC(F)(F)O3)n1 | 131
42 | N#Cc1ccc(N2CCC(C(N)=O)CC2)c2ccccc12 | 249 to 250
43 | COC(=O)c1ccc2ncc(C3CCN(C)CC3)c-2[nH]1 | 200 to 201
44 | CC#CCOc1cc(-c2ccc(F)cc2F)ncn1 | 63.9
45 | Cc1ccccc1CC(=O)c1cc(O)c(O)c([N+](=O)[O-])c1 | 128 to 129
46 | Nc1ccc(Nc2ccc(CCc3ccc(Cl)c(Cl)c3)cc2)c(C(=O)O)c1 | 137 to 142
47 | N#Cc1cccc(C(=O)Nc2ccc(-n3nc(C(F)(F)F)cc3C(F)(F)F)nc2)c1 | 206 to 208
48 | COc1ccc(C=CC(O)C(O)C=Cc2ccc(OC)cc2)cc1 (stereo unspecified) | 145 to 146

Row | Compound | melting point [°C]
49 | O=C1OC(=O)c2c(Cl)c(Sc3ccccc3)c(Cl)c(Cl)c21 | 162 to 164
50 | Nc1ncc(Oc2ccc(Cl)cc2)c(N2CCN(C=O)CC2)n1 | 159 to 161
51 | O=C(c1cccc(C(F)(F)F)c1)c1cc2c(F)ccc(Br)c2o1 | 114 to 115
52 | COc1cc(O)ccc1C=CC(=O)c1ccc(O)cc1 | 210 to 212
53 | O=C(NC1CCCCC1)c1ccc2nonc2c1 | 172 to 173
54 | CN(C)CCN1c2ccccc2C(=O)N(C)c2cccnc21 | 109 to 110
55 | COc1cc(OC(C)C)ccc1-c1nc(-c2ccc(OC(C)C)cc2O)nc(-c2ccc(OC(C)C)cc2O)n1 | 185 to 188
56 | CCOC(=O)c1cc2n(C)c3ccc(C)cc3c(=O)n2n1 | 250 to 252
57 | O=C(NCc1ccc(Cl)cc1)c1cnc2c(F)cc(I)cc2c1O | 268 to 270
58 | Cc1noc(C)c1-c1ccncc1OC1SCC(O)C(O)C1O (stereo unspecified) | 175 to 179
59 | N#CCN1C(=O)N(c2ccc(C#N)c(C(F)(F)F)c2)C(=O)C1(CO)CO | 157 to 158
60 | CCOC(=O)c1cn2c3c(c(Br)c(F)cc3c1=O)OCC2C (stereo unspecified) | > 250
61 | COc1cccc(OC2CN([C@H]3CC[C@@H](c4cc5ccccc5[nH]4)CC3)C2)c1 | 126 to 127
62 | O=C(Nc1c[nH]nc1C(=O)NC1CCCC1)c1ccccn1 | 240 to 241
63 | N#Cc1cccc(N(C(=O)NC2CCN(Cc3ccccc3)CC2)C2CCCC2)c1 | 165 to 166
64 | Cc1csc2c1-n1cccc1C2=NO | 198
65 | CC(Oc1cccc(Oc2c(Cl)cc(C(F)(F)F)cc2Cl)c1)C(=O)O (stereo unspecified) | 120
66 | COC(=O)[C@H](Cc1ccccc1)NC(=O)c1cnccn1 | 152 to 155
67 | CC(C)(C#N)c1cc(CC#N)cc(C(C)(C)C#N)c1 | 72 to 73
68 | CCn1c(OC)n[nH]c1=O | 130
69 | Cn1cc(-c2cnc3c(c2)ncn3Cc2ccc3ncccc3c2)cn1 | 150 to 152
70 | Cc1cc(C)cc(C(=O)N2CC[C@H](NCc3ccnc4ccccc34)C[C@H]2Cc2ccc(Cl)c(Cl)c2)c1 (relative stereo) | 121 to 124
71 | CCCCCCCCCCCCSC(=O)CS(=O)(=O)Nc1c(OC)cc(OC)cc1OC | 90 to 93
